Test results from ChEMBL document CHEMBL1152535, “Synthesis of branched 9-[2-(2-phosphonoethoxy)ethyl]purines as a new class of acyclic nucleoside phosphonates which inhibit Plasmodium falciparum hypoxanthine-guanine-xanthine phosphoribosyltransferase” (Bioorg Med Chem, 2009).

Experiments:
[1] = Inhibition of Plasmodium falciparum recombinant HGXPRT expressed in Escherichia coli by spectrophotometric assay
[2] = molecular target: T1, Hypoxanthine-guanine phosphoribosyltransferase (Homo sapiens, UniProt P00492); test: Inhibition of human recombinant HGPRT expressed in Escherichia coli by spectrophotometric assay
T1 sequence (P00492 whole entry): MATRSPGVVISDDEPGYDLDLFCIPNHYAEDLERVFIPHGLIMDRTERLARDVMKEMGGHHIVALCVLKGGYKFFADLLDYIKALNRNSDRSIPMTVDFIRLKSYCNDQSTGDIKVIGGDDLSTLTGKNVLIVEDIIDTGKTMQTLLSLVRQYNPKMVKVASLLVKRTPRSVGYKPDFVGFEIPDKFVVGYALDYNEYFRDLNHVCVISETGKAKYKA

[3] = Selectivity ratio of Ki for human recombinant HGPRT to Ki for Plasmodium falciparum recombinant HGXPRT

| Compound | Ki [1] [µM] | Ki [2] [µM] | Ratio Ki [3] |
| --- | --- | --- | --- |
| CC(CP(=O)(O)O)OCCn1cnc2c(=O)[nH]cnc21 (configuration not stated) | 10 | 2 | 0.2 |
| CCC(CP(=O)(O)O)OCCn1cnc2c(=O)[nH]c(N)nc21 (configuration not stated) | 5 | 0.3 | 0.06 |
| CC(CP(=O)(O)O)OCCn1cnc2c(=O)[nH]c(N)nc21 (configuration not stated) | 1 | 0.1 | 0.1 |
| CCC(CP(=O)(O)O)OCCn1cnc2c(=O)[nH]cnc21 (configuration not stated) | 69 | 10 | 0.15 |
